From US8609661B2, “Pyrimido-pyrrolo-quinoxalinedione inhibitors of cystic fibrosis transmembrane conductance regulator protein and uses therefor” (The Regents of the University of California, priority 2009, dated 2013)
Like-named read-outs stand apart in the source and are kept apart here.

Biological target: T1, human wildtype CFTR (Homo sapiens, UniProt P13569)
T1 construct: expressed in transfected cells; host or cells: Fischer rat thyroid (FRT) cells
Experiment: Fluorescence platereader assay of CFTR-mediated iodide influx (YFP quenching) in FRT cells
Type: cell-based
Conditions: for inhibition at 5 µM / inhibition at 25 µM: FRT; for IC50: apparent IC50 from concentration-inhibition data, fluorescence platereader assay
Protocol: A. Cell lines and compounds—Fischer rat thyroid (FRT) cells co-expressing human wildtype CFTR and the halide indicator YFP-H148Q/1152L were generated as described (see, e.g., Ma et al., J. Clin. Invest. 110:1651-1658 (2002)). Cells were plated in 96-well black-walled microplates (Corning Costar) at a density of 20,000 cells per well in Coon's modified F12 medium supplemented with 5% fetal calf serum, 2 mM L-glutamine, 100 U/mL penicillin, and 100 μg/ml streptomycin. Assays were performed at 48 h after plating the cells when the cells were just confluent. For some experiments, measurements were made using T84 human intestinal epithelial cells and for other experiments, measurements were obtained using primary cultures of human bronchial epithelial cells, which were obtained and grown essentially as previously described (see, e.g., 3 and 27).
B. Compound Screening—Assays were performed using an automated screening platform (Beckman) equipped with FLUOStar fluorescence platereaders (BMG Lab Technologies, Offenburg, Germany) as described (see Ma et al., supra). Each well of a 96-well plate containing FRT cells was washed 3 times in PBS (300 μL/wash), leaving 50 μL PBS. […] After 15 min, 96-well plates were transferred to a plate reader for fluorescence assay. Each well was assayed individually for CFTR-mediated iodide influx by recording fluorescence continuously (200 ms per point) for 2 s (baseline) and then for 10 s after rapid addition of 160 μL of isosmolar PBS in which 137 mM chloride was replaced by iodide. The initial rate of iodide influx was computed from fluorescence data by non-linear regression.
Collections of synthetic and natural compounds were screened according to the screening procedures described in Example 2. A cell-based fluorescence assay was used in which CFTR inhibitors were identified by reduced iodide influx in FRT cells co-expressing human CFTR and a YFP halide sensor. CFTR was maximally activated by a mixture of agonists having different activating mechanisms. Inhibition of iodide influx was observed as reduced YFP fluorescence quenching in response to rapid iodide addition to each well of 96-well plates. […]

[1] = Table 2, screening, 5 μM, read-out: % Inhibition at 5 μM
[2] = Table 2, screening, 25 μM, read-out: % Inhibition at 25 μM
[3] = read-out: % inhibition at 25/5 μM (25 μM value), Table 1, 25 μM compound
[4] = read-out: % inhibition at 25/5 μM (5 μM value), Table 1, 5 μM compound

T1 sequence (P13569 whole entry): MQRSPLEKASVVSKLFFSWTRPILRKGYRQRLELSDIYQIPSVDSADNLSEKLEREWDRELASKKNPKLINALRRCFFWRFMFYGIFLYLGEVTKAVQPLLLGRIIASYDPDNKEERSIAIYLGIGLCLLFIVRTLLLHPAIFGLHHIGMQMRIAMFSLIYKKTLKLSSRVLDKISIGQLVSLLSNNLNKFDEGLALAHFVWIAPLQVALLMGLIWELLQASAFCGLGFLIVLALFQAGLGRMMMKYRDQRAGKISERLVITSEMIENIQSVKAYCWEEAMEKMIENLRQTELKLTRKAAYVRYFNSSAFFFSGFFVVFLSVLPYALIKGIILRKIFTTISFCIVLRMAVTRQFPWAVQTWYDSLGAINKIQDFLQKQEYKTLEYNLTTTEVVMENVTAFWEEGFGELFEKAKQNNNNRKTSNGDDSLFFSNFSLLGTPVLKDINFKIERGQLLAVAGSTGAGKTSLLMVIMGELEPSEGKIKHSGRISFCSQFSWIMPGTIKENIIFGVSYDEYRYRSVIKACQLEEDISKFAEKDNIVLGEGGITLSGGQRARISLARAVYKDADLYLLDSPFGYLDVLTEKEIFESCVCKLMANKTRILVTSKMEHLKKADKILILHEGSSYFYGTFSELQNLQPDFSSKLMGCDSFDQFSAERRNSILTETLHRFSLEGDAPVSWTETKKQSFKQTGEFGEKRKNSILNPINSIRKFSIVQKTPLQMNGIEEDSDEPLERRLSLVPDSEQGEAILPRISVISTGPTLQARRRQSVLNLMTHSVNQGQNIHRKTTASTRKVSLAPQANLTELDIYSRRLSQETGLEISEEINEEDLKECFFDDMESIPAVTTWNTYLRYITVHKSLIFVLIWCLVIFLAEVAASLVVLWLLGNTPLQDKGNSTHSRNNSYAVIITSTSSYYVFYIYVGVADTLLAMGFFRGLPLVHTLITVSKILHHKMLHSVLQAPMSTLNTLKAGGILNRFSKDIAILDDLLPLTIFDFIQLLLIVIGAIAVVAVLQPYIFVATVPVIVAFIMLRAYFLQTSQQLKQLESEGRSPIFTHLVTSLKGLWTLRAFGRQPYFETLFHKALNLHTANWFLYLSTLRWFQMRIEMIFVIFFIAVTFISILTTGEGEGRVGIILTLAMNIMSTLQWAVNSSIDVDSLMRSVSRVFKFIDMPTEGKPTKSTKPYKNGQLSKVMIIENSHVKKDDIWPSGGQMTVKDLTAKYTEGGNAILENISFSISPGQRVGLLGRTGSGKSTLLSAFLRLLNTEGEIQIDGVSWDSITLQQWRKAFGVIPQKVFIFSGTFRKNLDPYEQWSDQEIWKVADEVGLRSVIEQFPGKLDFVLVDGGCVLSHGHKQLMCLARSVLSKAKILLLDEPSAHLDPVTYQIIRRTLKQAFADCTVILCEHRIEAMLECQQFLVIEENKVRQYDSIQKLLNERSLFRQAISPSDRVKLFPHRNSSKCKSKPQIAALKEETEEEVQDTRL

SMILES | inhibition at 5 µM [1] | inhibition at 25 µM [2] | inhibition at 25 µM [3] | IC50 | CFTR inhibition activity (structure-activity analysis) | inhibition at 5 µM [4]
Cc1ccc(C2Nc3ccccc3-n3c(-c4ccccc4C)c4c(=O)n(C)c(=O)n(C)c4c32)cc1 (centres unmarked) | 13% | 38% | – | – | – | –
Cc1ccccc1-c1c2c(=O)n(C)c(=O)n(C)c2c2n1-c1ccccc1NC2c1ccc(O)cc1 (centres unmarked) [PPQ-222, 7,9-Dimethyl-11-(2-methylphenyl)-6-(4-hydroxyphenyl)-5,6-dihydro-pyrimido[4′,5′-3,4]pyrrolo[1,2-a]quinoxaline-8,10-(7H,9H)-dione] | 32% | 84% | – | – | – | –
COc1cc(C2Nc3ccccc3-n3c(-c4ccccc4C)c4c(=O)n(C)c(=O)n(C)c4c32)ccc1O (centres unmarked) [PPQ-227, 7,9-Dimethyl-11-(2-methylphenyl)-6-(3-methoxy-4-hydroxyphenyl)-5,6-dihydro-pyrimido[4′,5′-3,4]pyrrolo[1,2-a]quinoxaline-8,10-(7H,9H)-dione] | 10% | 78% | – | – | – | –
COc1ccc(-c2c3c(=O)n(C)c(=O)n(C)c3c3n2-c2ccccc2NC3c2cccc(C)c2)cc1 (centres unmarked) | < 10% | 35% | – | – | – | –
COc1cc(O)ccc1C1Nc2ccccc2-n2c(-c3ccccc3)c3c(=O)n(C)c(=O)n(C)c3c21 (centres unmarked) [PPQ-208, 7,9-Dimethyl-11-phenyl-6-(2-methoxy-4-hydroxyphenyl)-5,6-dihydro-pyrimido[4′,5′-3,4]pyrrolo[1,2-a]quinoxaline-8,10-(7H,9H)-dione] | 13% | 56% | 56% | 100000 nM | – | –
Cc1ccc(C(=O)Nc2ccccc2-n2cc3c(c2-c2ccccc2)c(=O)n(C)c(=O)n3C)o1 [PPQ-102b, N-(2-(1,3-dimethyl-2,4-dioxo-5-phenyl-3,4-dihydro-1H-pyrrolo[3,4-d]pyrimidin-6(2H)-yl)phenyl)-5-methylfuran-2-carboxamide] | – | – | – | – | abolished CFTR inhibition activity | –
COc1ccc(-c2c3c(=O)n(C)c(=O)n(C)c3c3n2-c2ccccc2NC3c2cccc(OC)c2)cc1 (centres unmarked) | 13% | 47% | – | – | – | –
Cc1cccc(-c2c3c(=O)n(C)c(=O)n(C)c3c3n2-c2ccccc2NC3c2ccccc2F)c1 (centres unmarked) [PPQ-215, 7,9-Dimethyl-11-(3-methylphenyl)-6-(2-fluorophenyl)-5,6-dihydro-pyrimido[4′,5′-3,4]pyrrolo[1,2-a]quinoxaline-8,10-(7H,9H)-dione] | 67% | 80% | 80% | 2500 nM | – | 67%
Cn1c(=O)c2c(-c3ccc(Cl)cc3)n3c(c2n(C)c1=O)C(c1ccccc1)Nc1ccccc1-3 (centres unmarked) | < 10% | 34% | – | – | – | –
Cc1ccc(C2Nc3ccccc3-n3c(-c4ccccc4C)c4c(=O)n(C)c(=O)n(C)c4c32)o1 (centres unmarked) [PPQ-103, 7,9-Dimethyl-11-(2-methylphenyl)-6-(5-methylfuran-2-yl)-5,6-dihydro-pyrimido[4′,5′-3,4]pyrrolo[1,2-a]quinoxaline-8,10-(7H,9H)-dione] | 63% | > 95% | – | 800 nM | – | –
COc1ccc(C2Nc3ccccc3-n3c(-c4ccccc4F)c4c(=O)n(C)c(=O)n(C)c4c32)cc1 (centres unmarked) | < 10% | 33% | – | – | – | –
Cc1cccc(-c2c3c(=O)n(C)c(=O)n(C)c3c3n2-c2ccccc2NC3c2ccco2)c1 (centres unmarked) [PPQ-106, 7,9-Dimethyl-11-(3-methylphenyl)-6-(furan-2-yl)-5,6-dihydro-pyrimido[4′,5′-3,4]pyrrolo[1,2-a]quinoxaline-8,10-(7H,9H)-dione] | 49% | 96% | – | – | – | –
Cn1c(=O)c2c(-c3ccccc3)n3c(c2n(C)c1=O)C(c1ccc(O)cc1O)Nc1ccccc1-3 (centres unmarked) | < 10% | 35% | – | – | – | –
Cc1cc2c(cc1C)-n1c(-c3ccccc3)c3c(=O)n(C)c(=O)n(C)c3c1C(c1ccco1)N2 (centres unmarked) [PPQ-107, 2,3,7,9-Tetramethyl-11-phenyl-6-(furan-2-yl)-5,6-dihydro-pyrimido[4′,5′-3,4]pyrrolo[1,2-a]quinoxaline-8,10-(7H,9H)-dione] | 24% | 87% | – | – | – | –
Cc1ccc(-c2c3c(=O)n(C)c(=O)n(C)c3c3n2-c2ccccc2NC3c2cccs2)cc1 (centres unmarked) | < 10% | 35% | – | – | – | –
Cn1c(=O)c2c(-c3ccccc3)n3c(c2n(C)c1=O)C(c1ccccc1F)Nc1ccccc1-3 (centres unmarked) [PPQ-205, 7,9-Dimethyl-11-phenyl-6-(2-fluorophenyl)-5,6-dihydro-pyrimido[4′,5′-3,4]pyrrolo[1,2-a]quinoxaline-8,10-(7H,9H)-dione] | 61% | 81% | 81% | 2000 nM | – | 61%
COc1ccc(-c2c3c(=O)n(C)c(=O)n(C)c3c3n2-c2ccccc2NC3c2ccc(C)o2)cc1 (centres unmarked) [PPQ-109, 7,9-Dimethyl-11-(4-methoxyphenyl)-6-(5-methylfuran-2-yl)-5,6-dihydro-pyrimido[4′,5′-3,4]pyrrolo[1,2-a]quinoxaline-8,10-(7H,9H)-dione] | 12% | 68% | – | – | – | –
COc1ccc(-c2c3c(=O)n(C)c(=O)n(C)c3c3n2-c2ccccc2NC3c2ccccc2Cl)cc1 (centres unmarked) | < 10% | 47% | – | – | – | –

More lines, now with the values ahead:

inhibition at 5 µM [1] | inhibition at 25 µM [2] | inhibition at 25 µM [3] | IC50 | CFTR inhibition activity (structure-activity analysis) | inhibition at 5 µM [4] | SMILES
26% | 63% | – | – | – | – | Cc1cccc(-c2c3c(=O)n(C)c(=O)n(C)c3c3n2-c2ccccc2NC3c2ccc3c(c2)OCO3)c1 (centres unmarked) [PPQ-302, 7,9-Dimethyl-11-(3-methylphenyl)-6-(1,3-benzodioxol-5-yl)-5,6-dihydro-pyrimido[4′,5′-3,4]pyrrolo[1,2-a]quinoxaline-8,10-(7H,9H)-dione]
13% | 58% | – | – | – | – | Cc1cc2c(cc1C)-n1c(-c3ccccc3)c3c(=O)n(C)c(=O)n(C)c3c1C(c1cc(O)ccc1O)N2 (centres unmarked) [PPQ-247, 2,3,7,9-Tetramethyl-11-phenyl-6-(2,5-dihydroxyphenyl)-5,6-dihydro-pyrimido[4′,5′-3,4]pyrrolo[1,2-a]quinoxaline-8,10-(7H,9H)-dione]
53% | 81% | – | – | – | – | Cc1ccccc1-c1c2c(=O)n(C)c(=O)n(C)c2c2n1-c1ccccc1NC2c1ccccc1F (centres unmarked) [PPQ-234, 7,9-Dimethyl-11-(2-methylphenyl)-6-(2-fluorophenyl)-5,6-dihydro-pyrimido[4′,5′-3,4]pyrrolo[1,2-a]quinoxaline-8,10-(7H,9H)-dione]
13% | 62% | – | – | – | – | COc1cc(C2Nc3ccccc3-n3c(-c4ccccc4F)c4c(=O)n(C)c(=O)n(C)c4c32)ccc1O (centres unmarked) [PPQ-251, 7,9-Dimethyl-11-(2-fluorophenyl)-6-(3-methoxy-4-hydroxyphenyl)-5,6-dihydro-pyrimido[4′,5′-3,4]pyrrolo[1,2-a]quinoxaline-8,10-(7H,9H )-dione]
12% | 72% | – | – | – | – | Cc1cccc(-c2c3c(=O)n(C)c(=O)n(C)c3c3n2-c2ccccc2NC3c2ccc(O)c(O)c2)c1 (centres unmarked) [PPQ-243, 7,9-Dimethyl-11-(3-methylphenyl)-6-(3,4-dihydroxyphenyl)-5,6-dihydro-pyrimido[4′,5′-3,4]pyrrolo[1,2-a]quinoxaline-8,10-(7H,9H)-dione]
49% | 64% | – | – | – | – | Cc1cccc(-c2c3c(=O)n(C)c(=O)n(C)c3c3n2-c2ccccc2NC3c2ccccc2)c1 (centres unmarked) [PPQ-250, 7,9-Dimethyl-11-(3-methylphenyl)-6-phenyl-5,6-dihydro-pyrimido[4′,5′-3,4]pyrrolo[1,2-a]quinoxaline-8,10-(7H,9H)-dione]
< 10% | 78% | – | – | – | – | COc1ccc(-c2c3c(=O)n(C)c(=O)n(C)c3c3n2-c2ccccc2NC3c2cccc(F)c2F)cc1 (centres unmarked) [PPQ-252, 7,9-Dimethyl-11-(4-methoxyphenyl)-6-(2,3-difluorophenyl)-5,6-dihydro-pyrimido[4′,5′-3,4]pyrrolo[1,2-a]quinoxaline-8,10-(7H,9H)-dione]
32% | 56% | – | – | – | – | Cn1c(=O)c2c(-c3ccccc3F)n3c(c2n(C)c1=O)C(c1ccc(F)cc1F)Nc1ccccc1-3 (centres unmarked) [PPQ-244, 7,9-Dimethyl-11-(2-fluorophenyl)-6-(2,4-difluorophenyl)-5,6-dihydro-pyrimido[4′,5′-3,4]pyrrolo[1,2-a]quinoxaline-8,10-(7H,9H)-dione]
< 10% | 87% | – | – | – | – | CCOc1ccccc1C1Nc2ccccc2-n2c(-c3cccc(C)c3)c3c(=O)n(C)c(=O)n(C)c3c21 (centres unmarked) [PPQ-231, 7,9-Dimethyl-11-(3-methylphenyl)-6-(2-ethoxyphenyl)-5,6-dihydro-pyrimido[4′,5′-3,4]pyrrolo[1,2-a]quinoxaline-8,10-(7H,9H)-dione]
